Data published in patent US20180147206A1, “ACTIVATION OF NEURONAL STORE-OPERATED CALCIUM ENTRY PATHWAY FOR THE TREATMENT OF ALZHEIMER'S DISEASE” (The Board of Regents of the University of Texas System, priority 2015, published 2018).

Assays:
[1] = tested on: amyloid plaques; experiment: Aβ immunohistochemistry, amyloid plaque load in APPKI mice; format: in vivo, mouse; details: 13 month-old APPKI mice; i.p. 10 mg/kg three times per week for 8 weeks
[2] = tested on: mushroom spines of hippocampal neurons; experiment: Dendritic spine analysis in primary hippocampal neural cultures; format: cell-based, mouse; details: for mushroom spine loss: 30 nM for 16 hours
Method: FIGS. 4A-E. NSN21778 and Hyperforin rescue synaptic nSOC and mushroom spine loss in AD hippocampal neurons. (FIG. 4A) Chemical structure of NSN21778 and Hyperforin. (FIG. 4B) Time-course of GCaMP5.3 fluorescence signal changes in the spines of wild-type, PS1KI and APPKI hippocampal neurons. The time of extracellular Ca^2+ re-addition is indicated by a black bar above the traces. 100 μM DHPG was added 50 sec prior to Ca^2+ re-addition. The results are shown for control (CON) neurons and for neurons pretreated with 300 nM NSN21778 (+NSN) or 300 nM Hyperforin (+Hyp) for 30 min as indicated. For each experimental group individual spine (grey) and average (red) fluorescence traces are shown. (FIG. 4C) The average nSOC spine peak amplitude is shown for each group of cells shown on panel B. The mean AF/Fo signals for each group and presented as mean±SE (n≥45 spines). ***, p <0.001. (FIG. 4D) Confocal images of wild-type, PS1KI and APPKI hippocampal neurons transfected with TD-Tomato and fixed at DIV15-16. The images are shown for control neurons (CON) and for neurons treated with 30 nM NSN21778 (+NSN) or 30 nM Hyperforin (+Hyp) for 16 hours prior to fixation. Scale bar is 10 μm. (FIG. 4E) The average fraction of mushroom spines for each group of cells shown on FIG. 4D is presented as mean±SE (n≥18 neurons). ***, p <0.001.
FIGS. 5A-E. TRPC6 is a molecular target for NSN21778 and Hyperforin. (FIGS. 5A-B) Time course of Fura-2 Ca^2+ signals is shown for HEK293 cells transfected with EGFP plasmid (GFP) or combination of EGFP and TRPC6 plasmids (TRPC6). Cells were incubated in ACSF media containing 2 mM Ca^2+. In experiments shown in FIG. 5B, cells were moved to modified ACSF media containing 0.1 mM Ca^2+ for 2 min and then returned to the media containing 2 mM Ca^2+ with addition of 100 μM OAG. The time of addition of 1 μM Hyperforin (Hyp) or NSN21778 (NSN) is indicated by red bars above the Fura-2 traces. For each experimental group individual spine (grey) and average (red) fluorescence traces are shown. (FIG. 5C) The average Ca^2+ influx peak is shown for experiments presented on FIGS. 5A-B as mean±SE (n≥81). (FIG. 5D) Confocal images of wild-type and PS1KI hippocampal neurons transfected with TD-Tomato and fixed at DIV15-16. The neurons were infected with lentiviruses encoding control RNAi (siCtrl), RNAi against TRPC6 (siT6) or RNAi against Orai2 (siO2). The images are shown for no drug treated neurons (CON) and for neurons treated with 30 nM NSN21778 (+NSN) or 30 nM Hyperforin (+Hyp) for 16 hours prior to fixation. Scale bar is 10 μm. No drug treated group of wild-type and PS1KI neurons is from the same experiment as shown on FIG. 2A-J. (FIG. 5E) The average fraction of mushroom spines for each group of cells shown on panel A is presented as mean±SE (n≥19 neurons). ***, p <0.001.
Dendritic Spine Analysis in Primary Hippocampal Neural Cultures. The hippocampal cultures of PS1KI, APPKI and WT mice were established from postnatal day 0-1 pups and maintained in culture as the inventors described previously [Zhang, 2010 #5733]. For assessment of synapse morphology, hippocampal cultures were transfected with TD-Tomato plasmid at DIV7 using the calcium phosphate method and fixed (4% formaldehyde, 4% sucrose in PBS, pH 7.4) at DIV15-16. A Z-stack of optical section was captured using 100× objective with a confocal microscope (Carl Zeiss Axiovert 100M with LSM510). 18-20 cultured neurons from three batches of cultures were used for quantitative analysis per genotype. Quantitative analysis for dendritic spines was performed by using NeuronStudio software package [Rodriguez, 2008 #6276]. To classify the shape of neuronal spines in culture, the inventors adapted an algorithm from published method [Rodriguez, 2008 #6276]. In classification of spine shapes the inventors used the following cutoff values: aspect ratio for thin spines (AR_thin(crio))=2.5, head to neck ratio (HNR(crit))=1.4, and head diameter (HD(crit))=0.5 μm. […]

[3] = tested on: spine nSOC channels; experiment: GCamp5.3 Ca2+ imaging of synaptic nSOC in cultured hippocampal neurons; format: cell-based, mouse

## CC(=O)Nc1ccc(CCNc2ncnc3ccc(N)cc23)cc1 [NSN21778, N-{4-[2-(6-Amino-quinazolin-4-ylamino)-ethyl]-phenyl}-acetamide]
[1]
  plaque intensity: significant reduction
  total plaque area: significant reduction
[2]; PS1KI and APPKI neurons, 30 nM for 16 hr
  mushroom spines: complete rescue
[2]; PS1KI cultures infected with control RNAi lentiviruses
  mushroom spine loss: rescued mushroom spine loss
[2]; PS1KI hippocampal neurons following knockdown of TRPC6 or Orai2
  mushroom spine loss: failed to rescue mushroom spine loss
[2]; wild-type neurons with knockdown of TRPC6 or Orai2
  mushroom spine loss: failed to rescue
[2]; wild-type neurons, 30 nM for 16 hr
  fraction of mushroom spines: no significant effect
[3]; PS1KI and APPKI hippocampal neurons, 300 nM applied prior to Ca2+ re-addition
  spine nSOC: rescued spine nSOC
[3]; wild-type spines, 300 nM
  spine nSOC: no significant effect
